IC50 data for 25 molecules are collected here from patent US20260042755A1, “GPR6 INVERSE AGONISTS” (MapLight Therapeutics, Inc., priority 2022, published 2026).

In experiment [1] the target is T1, GPR6 (Homo sapiens, UniProt P46095).
T1 construct: expressed in transfected cells; host or cells: CHO cells
The experiment can be described thus: GPR6 antagonist functional cAMP assay (LANCE Ultra cAMP TR-FRET, CHO cells stably expressing GPR6). The experiment is classed as cell-based. The note with it: CHO cells stably expressing GPR6, cAMP assay (Example 24). In short, it runs like this:
(§1)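 We measure cAMP by TR-FRET (665 nm) in cells held in glucose-containing Krebs-Ringer buffer with BSA and a PDE inhibitor, after a 45 min, 37 °C compound incubation. IC50s derive from a four-parameter logistic fit.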
A general note: Changes in cAMP serve as a functional read-out for many G protein-coupled receptors.

In experiment [2] the target is T2, GPR3 (Homo sapiens, UniProt P46089).
T2 construct: expressed in transfected cells; host or cells: CHO cells
T2 sequence (P46089 whole entry, species assumed): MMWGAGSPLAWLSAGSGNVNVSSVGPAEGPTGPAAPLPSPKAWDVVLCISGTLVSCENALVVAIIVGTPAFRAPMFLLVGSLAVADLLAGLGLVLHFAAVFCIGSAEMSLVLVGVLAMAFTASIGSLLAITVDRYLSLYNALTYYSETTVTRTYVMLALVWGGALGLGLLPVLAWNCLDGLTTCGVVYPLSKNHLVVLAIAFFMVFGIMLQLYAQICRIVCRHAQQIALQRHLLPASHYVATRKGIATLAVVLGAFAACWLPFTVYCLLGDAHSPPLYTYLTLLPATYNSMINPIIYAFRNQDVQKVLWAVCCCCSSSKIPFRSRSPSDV
The experiment can be described thus: GPR3 antagonist functional cAMP assay (LANCE Ultra cAMP TR-FRET, CHO cells stably expressing GPR3). The experiment is classed as cell-based. Conditions: CHO cells stably expressing GPR3, cAMP assay (Example 24). In short, it runs like this: as §1

T1 sequence (P46095 whole entry): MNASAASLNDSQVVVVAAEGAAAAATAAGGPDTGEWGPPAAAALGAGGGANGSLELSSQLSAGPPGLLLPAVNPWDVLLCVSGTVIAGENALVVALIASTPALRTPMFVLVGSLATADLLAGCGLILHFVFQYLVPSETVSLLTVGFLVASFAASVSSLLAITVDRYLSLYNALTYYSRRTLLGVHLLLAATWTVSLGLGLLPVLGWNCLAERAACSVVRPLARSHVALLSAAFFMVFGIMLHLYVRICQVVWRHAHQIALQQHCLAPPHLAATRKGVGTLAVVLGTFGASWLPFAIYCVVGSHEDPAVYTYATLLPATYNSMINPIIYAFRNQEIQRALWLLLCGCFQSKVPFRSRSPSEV

Usually IC50 stands for the point on the concentration scale where inhibition reaches its midpoint. A higher IC50 goes with lower potency. As for `O=C(C1COC1)N1CCc2nc(N3CCC(Oc4ccc(F)cc4F)CC3)c(-c3cnn(C4CCCCO4)c3)nc2C1` (centres unmarked) [Compound 172, 4-(2,4-difluorophenoxy)-1-{3-[1-(oxan-2-yl)-1H-pyrazol-4-yl]-6-(oxetane-3-carbonyl)-5H,6H,7H,8H-pyrido[3,4-b]pyrazin-2-yl}piperidine], the IC50 in experiment [1] was in the range of 100 to 1000 nM; in experiment [2], 1000 to 30000 nM.

For `COC(C)(C)C(=O)N1CCc2nc(N3CCC(Oc4ccc(F)cc4F)CC3)c(-c3cnn(C4CCCCO4)c3)nc2C1` (centres unmarked) [Compound 173, 1-{2-[4-(2,4-difluorophenoxy)piperidin-1-yl]-3-[1-(oxan-2-yl)-1H-pyrazol-4-yl]-5H,6H,7H,8H-pyrido[3,4-b]pyrazin-6-yl}-2-methoxy-2-methylpropan-1-one], the 50% inhibitory concentration (IC50) in experiment [1] and in experiment [2] was 1000 to 30000 nM throughout.

As for `COC(C)(C)C(=O)N1CCc2nc(N3CCC(Oc4ccc(F)cc4F)CC3)c(-c3cn[nH]c3)nc2C1` [Compound 174, 1-{2-[4-(2,4-difluorophenoxy)piperidin-1-yl]-3-(1H-pyrazol-4-yl)-5H,6H,7H,8H-pyrido[3,4-b]pyrazin-6-yl}-2-methoxy-2-methylpropan-1-one], the IC50 fell in the range of 100 to 1000 nM in experiment [1] and 1000 to 30000 nM in experiment [2].

Regarding `CC(C)(O)C(=O)N1CCc2nc(N3CCC(Oc4ccc(F)cc4F)CC3)c(-c3cn[nH]c3)nc2C1` [Compound 175, 1-{2-[4-(2,4-difluorophenoxy)piperidin-1-yl]-3-(1H-pyrazol-4-yl)-5H,6H,7H,8H-pyrido[3,4-b]pyrazin-6-yl}-2-hydroxy-2-methylpropan-1-one], the IC50 in experiment [1] was 100 to 1000 nM; in experiment [2], 1000 to 30000 nM.

On to `CC(C)S(=O)(=O)N1CCc2nc(N3CCC(Oc4ccc(F)cc4F)CC3)c(-c3cnn(C4CCCCO4)c3)nc2C1` (centres unmarked) [Compound 176, 4-(2,4-difluorophenoxy)-1-{3-[1-(oxan-2-yl)-1H-pyrazol-4-yl]-6-(propane-2-sulfonyl)-5H,6H,7H,8H-pyrido[3,4-b]pyrazin-2-yl}piperidine], for which the figures for the IC50 in experiment [1] and in experiment [2] were 100 to 1000 nM and 1000 to 30000 nM, respectively.

Take `CCS(=O)(=O)N1CCc2nc(N3CCC(Oc4ccc(F)cc4F)CC3)c(-c3cnn(C4CCCCO4)c3)nc2C1` (centres unmarked) [Compound 177, 4-(2,4-difluorophenoxy)-1-[6-(ethanesulfonyl)-3-[1-(oxan-2-yl)-1H-pyrazol-4-yl]-5H,6H,7H,8H-pyrido[3,4-b]pyrazin-2-yl]piperidine]: the IC50 was in the range of 100 to 1000 nM in experiment [1] and 1000 to 30000 nM in experiment [2].

For `O=C(C1CCCN1)N1CCc2nc(N3CCC(Oc4ccc(F)cc4F)CC3)c(-c3cn[nH]c3)nc2C1` (centres unmarked) [Compound 178, 4-(2,4-difluorophenoxy)-1-[3-(1H-pyrazol-4-yl)-6-(pyrrolidine-2-carbonyl)-5H,6H,7H,8H-pyrido[3,4-b]pyrazin-2-yl]piperidine], the results for the IC50 in experiment [1] and in experiment [2] were 100 to 1000 nM and 1000 to 30000 nM, respectively.

For `O=C(CO)N1CCc2nc(N3CCC(Oc4ccc(F)cc4F)CC3)c(-c3cn[nH]c3)nc2C1` [Compound 179, 1-{2-[4-(2,4-difluorophenoxy)piperidin-1-yl]-3-(1H-pyrazol-4-yl)-5H,6H,7H,8H-pyrido[3,4-b]pyrazin-6-yl}-2-hydroxyethan-1-one], the IC50 in experiment [1] is less than 100 nM; in experiment [2], 1000 to 30000 nM.

In the case of `CNC(=O)N1CCc2nc(N3CCC(Oc4ccc(F)cc4F)CC3)c(-c3cn[nH]c3)nc2C1` [Compound 180, 2-[4-(2,4-difluorophenoxy)piperidin-1-yl]-N-methyl-3-(1H-pyrazol-4-yl)-5H,6H,7H,8H-pyrido[3,4-b]pyrazine-6-carboxamide], the IC50 in experiment [1] and in experiment [2] was 1000 to 30000 nM each time.

`CNC(=O)N1CCc2nc(N3CCC(Oc4ccc(F)cc4F)CC3)c(-c3cnn(C4CCCCO4)c3)nc2C1` (centres unmarked) [Compound 181, 2-[4-(2,4-difluorophenoxy)piperidin-1-yl]-N-methyl-3-[1-(oxan-2-yl)-1H-pyrazol-4-yl]-5H,6H,7H,8H-pyrido[3,4-b]pyrazine-6-carboxamide]: the IC50 in experiment [1] and in experiment [2] was 1000 to 30000 nM throughout.

In the case of `CN(C)C(=O)N1CCc2nc(N3CCC(Oc4ccc(F)cc4F)CC3)c(-c3cnn(C4CCCCO4)c3)nc2C1` (centres unmarked) [Compound 182, 2-[4-(2,4-difluorophenoxy)piperidin-1-yl]-N,N-dimethyl-3-[1-(oxan-2-yl)-1H-pyrazol-4-yl]-5H,6H,7H,8H-pyrido[3,4-b]pyrazine-6-carboxamide], the values for the half-inhibitory concentration (IC50) in experiment [1] and in experiment [2] were 100 to 1000 nM and 1000 to 30000 nM, respectively.

In the case of `COc1cccc(-c2nc3c(nc2N2CCN(Cc4cc(Cl)ccc4Cl)CC2)CCN(C(C)=O)C3)n1` [Compound 183, 1-(2-{4-[(2,5-dichlorophenyl)methyl]piperazin-1-yl}-3-(6-methoxypyridin-2-yl)-5H,6H,7H,8H-pyrido[3,4-b]pyrazin-6-yl)ethan-1-one], the 50% inhibitory concentration (IC50) in experiment [1] is less than 100 nM; in experiment [2] it was 1000 to 30000 nM.

`O=C(C1COC1)N1CCc2nc(N3CCC(Oc4ccc(F)cc4F)CC3)c(-c3cn[nH]c3)nc2C1` [Compound 184, 4-(2,4-difluorophenoxy)-1-[6-(oxetane-3-carbonyl)-3-(1H-pyrazol-4-yl)-5H,6H,7H,8H-pyrido[3,4-b]pyrazin-2-yl]piperidine]: the IC50 in experiment [1] was less than 100 nM; in experiment [2], 1000 to 30000 nM.

`C=CC(=O)N1CCc2nc(N3CCC(Oc4ccc(F)cc4F)CC3)c(-c3cnn(C4CCCCO4)c3)nc2C1` (centres unmarked) [Compound 185, 1-{2-[4-(2,4-difluorophenoxy)piperidin-1-yl]-3-[1-(oxan-2-yl)-1H-pyrazol-4-yl]-5H,6H,7H,8H-pyrido[3,4-b]pyrazin-6-yl}prop-2-en-1-one]: the IC50 in experiment [1] fell in the range of 100 to 1000 nM; in experiment [2] it was 1000 to 30000 nM.

On to `CC(C)(C)OC(=O)N1CCCC1C(=O)N1CCc2nc(N3CCC(Oc4ccc(F)cc4F)CC3)c(-c3cnn(C4CCCCO4)c3)nc2C1` (centres unmarked) [Compound 186, tert-butyl 2-{2-[4-(2,4-difluorophenoxy)piperidin-1-yl]-3-[1-(oxan-2-yl)-1H-pyrazol-4-yl]-5H,6H,7H,8H-pyrido[3,4-b]pyrazine-6-carbonyl}pyrrolidine-1-carboxylate], for which the half-inhibitory concentration (IC50) in experiment [1] and in experiment [2] was 1000 to 30000 nM throughout.

Consider `CN(C)C(=O)N1CCc2nc(N3CCC(Oc4ccc(F)cc4F)CC3)c(-c3cn[nH]c3)nc2C1` [Compound 187, 2-[4-(2,4-difluorophenoxy)piperidin-1-yl]-N,N-dimethyl-3-(1H-pyrazol-4-yl)-5H,6H,7H,8H-pyrido[3,4-b]pyrazine-6-carboxamide], for which the results for the IC50 in experiment [1] and in experiment [2] were less than 100 nM and 1000 to 30000 nM, respectively.

`Cn1cc(-c2nc3cnccc3nc2N2CCC(C)(Oc3ccc(F)cc3F)CC2)cn1` [Compound 188, 4-(2,4-difluorophenoxy)-4-methyl-1-[3-(1-methyl-1H-pyrazol-4-yl)pyrido[3,4-b]pyrazin-2-yl]piperidine]: the IC50 in experiment [1] fell in the range of 100 to 1000 nM; in experiment [2] it was 1000 to 30000 nM.

As to `COc1ccc(-c2nc3c(nc2N2CCC(Oc4ccc(F)cc4F)CC2)CCN(C(C)=O)C3)nn1` [Compound 189, 1-{2-[4-(2,4-difluorophenoxy)piperidin-1-yl]-3-(6-methoxypyridazin-3-yl)-5H,6H,7H,8H-pyrido[3,4-b]pyrazin-6-yl}ethan-1-one], the figures for the concentration for half-maximal inhibition (IC50) in experiment [1] and in experiment [2] were 100 to 1000 nM and 1000 to 30000 nM, respectively.

Regarding `COc1ncc(-c2nc3c(nc2N2CCC(Oc4ccc(F)cc4F)CC2)CCN(C(C)=O)C3)cn1` [Compound 190, 1-{2-[4-(2,4-difluorophenoxy)piperidin-1-yl]-3-(2-methoxypyrimidin-5-yl)-5H,6H,7H,8H-pyrido[3,4-b]pyrazin-6-yl}ethan-1-one], the concentration for half-maximal inhibition (IC50) in experiment [1] was 100 to 1000 nM; in experiment [2], 1000 to 30000 nM.

With `COc1cnc(-c2nc3c(nc2N2CCC(Oc4ccc(F)cc4F)CC2)CCN(C(C)=O)C3)nc1` [Compound 191, 1-{2-[4-(2,4-difluorophenoxy)piperidin-1-yl]-3-(5-methoxypyrimidin-2-yl)-5H,6H,7H,8H-pyrido[3,4-b]pyrazin-6-yl}ethan-1-one], the IC50 in experiment [1] and in experiment [2] was 1000 to 30000 nM throughout.

In the case of `COc1cnnc(-c2nc3c(nc2N2CCC(Oc4ccc(F)cc4F)CC2)CCN(C(C)=O)C3)c1` [Compound 192, 1-{2-[4-(2,4-difluorophenoxy)piperidin-1-yl]-3-(5-methoxypyridazin-3-yl)-5H,6H,7H,8H-pyrido[3,4-b]pyrazin-6-yl}ethan-1-one], the half-inhibitory concentration (IC50) in experiment [1] and in experiment [2] was 1000 to 30000 nM each time.

Take `Cn1cc(-c2nc3cnc(Cl)cc3nc2N2CCN(Cc3ccc(F)cc3F)CC2)cn1` [Compound 193, 1-[7-chloro-3-(1-methyl-1H-pyrazol-4-yl)pyrido[3,4-b]pyrazin-2-yl]-4-[(2,4-difluorophenyl)methyl]piperazine]: the IC50 in experiment [1] and in experiment [2] was 1000 to 30000 nM throughout.

For `Cn1cc(-c2nc3cnc(CO)cc3nc2N2CCN(Cc3ccc(F)cc3F)CC2)cn1` [Compound 194, (2-{4-[(2,4-difluorophenyl)methyl]piperazin-1-yl}-3-(1-methyl-1H-pyrazol-4-yl)pyrido[3,4-b]pyrazin-7-yl)methanol], the IC50 in experiment [1] was 100 to 1000 nM; in experiment [2], 1000 to 30000 nM.

`CC(=O)N1CCc2nc(N3CCC(Oc4ccc(F)cc4F)CC3)c(-c3cnn(CC(C)C)c3)nc2C1` [Compound 195, 1-{2-[4-(2,4-difluorophenoxy)piperidin-1-yl]-3-[1-(2-methylpropyl)-1H-pyrazol-4-yl]-5H,6H,7H,8H-pyrido[3,4-b]pyrazin-6-yl}ethan-1-one]: the half-maximal inhibitory concentration (IC50) in experiment [1] was in the range of 100 to 1000 nM; in experiment [2] it was 1000 to 30000 nM.

For `CC(=O)N1CCc2nc(N3CCC(Oc4ccc(F)cc4F)CC3)c(-c3cnn(C(C)(C)C#N)c3)nc2C1` [Compound 196, 2-(4-{6-acetyl-2-[4-(2,4-difluorophenoxy)piperidin-1-yl]-5H,6H,7H,8H-pyrido[3,4-b]pyrazin-3-yl}-1H-pyrazol-1-yl)-2-methylpropanenitrile], the IC50 in experiment [1] and in experiment [2] was 1000 to 30000 nM each time.
